The results in this text go back to ChEMBL document CHEMBL1132499, “NMR-based discovery of phosphotyrosine mimetics that bind to the Lck SH2 domain” (Bioorg Med Chem Lett, 1999).

Bounds are passed on as bounds.

The target in this experiment is Tyrosine-protein kinase Lck (Homo sapiens, UniProt P06239). In words: Binding affinity against Lck SH2 domain.
Tyrosine-protein kinase Lck, sequence (P06239 whole entry, the tested form may be a part): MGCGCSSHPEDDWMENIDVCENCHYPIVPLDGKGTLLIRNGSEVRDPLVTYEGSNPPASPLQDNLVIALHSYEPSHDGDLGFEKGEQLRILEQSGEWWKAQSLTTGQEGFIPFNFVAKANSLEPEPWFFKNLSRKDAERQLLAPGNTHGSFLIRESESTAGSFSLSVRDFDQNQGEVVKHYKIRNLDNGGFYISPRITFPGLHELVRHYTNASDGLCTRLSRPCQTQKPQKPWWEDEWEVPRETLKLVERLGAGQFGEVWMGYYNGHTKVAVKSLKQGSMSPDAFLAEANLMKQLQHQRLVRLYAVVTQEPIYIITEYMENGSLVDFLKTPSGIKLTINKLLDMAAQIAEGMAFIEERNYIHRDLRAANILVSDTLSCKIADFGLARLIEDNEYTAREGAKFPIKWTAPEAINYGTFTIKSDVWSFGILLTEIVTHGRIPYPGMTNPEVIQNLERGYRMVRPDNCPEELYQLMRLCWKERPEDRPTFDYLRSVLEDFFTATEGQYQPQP
As for `O=P(O)(O)Oc1cccc2ccccc12`, binding was characterised by a dissociation constant (Kd) of 0.2 mM.
The value for `Cc1nccn1C(=O)c1ccccc1C(=O)O` was 1.6 mM.
The value for `NC(Cc1ccc(OP(=O)(O)O)cc1)C(=O)O` (stereo not given) was 0.4 mM.
The value for `O=P(O)(O)c1cccc2ccccc12` was 1.5 mM; that for `O=P(O)(O)Cc1cccc2ccccc12` was 1 mM.
Regarding `O=C(O)c1cc(C(=O)O)cc(C(=O)O)c1`, binding was characterised by a dissociation constant (Kd) of 0.2 mM.
Then `Cc1ccccc1CP(=O)(O)O`, with 1 mM; and `CCOC(=O)C(Cc1ccc(OP(=O)(O)O)cc1)NC(C)=O` (stereo not given), with 0.3 mM; and `CCCN(CCC)C(=O)c1ccccc1C(=O)O`, with 1.7 mM.
`O=C(O)c1ccccc1C(=O)n1ccnc1` gave a Kd of 1.3 mM.
The molecule `Cc1cc(C)nc(NC(=O)c2cc(C(=O)O)c(C(=O)Nc3cc(C)cc(C)n3)cc2C(=O)O)c1` came in with a Kd of 0.06 mM. Against the preceding molecule, the Kd is about 22-fold lower.
As for `O=P(O)(O)Cc1ccccc1` [BENZYLPHOSPHONIC ACID], binding was characterised by a dissociation constant (Kd) of 5.9 mM. This Kd is about 98-fold higher than that of the molecule before.
The value for `O=P(O)(O)Oc1ccccc1` [PHENYL DIHYDROGEN PHOSPHATE] was 0.3 mM; that for `O=C(O)Cc1ccccc1` [PHENYLACETIC ACID] was more than 50 mM.
`O=C(O)c1ccccc1C(=O)O` [PHTHALIC ACID]: binding was characterised by a dissociation constant (Kd) of 1.7 mM.

A word on the Kd: it is the free concentration of one partner at which half of the binding sites on the other are occupied at equilibrium, for simple one-to-one binding.
